# Measurements as given in patent US20220298540A1, “METHOD AND REAGENTS FOR DETECTING LUCIFERASE ACTIVITY” (OBSCHESATVO S OGRANICHENNOY OTVETSTVENNOSTYU "PLANTA", priority 2019, published 2022).
# What was measured:
# [1] = test system: Odontosyllis undecimdonta worm luciferase; experiment: Detecting bioluminescence in cold extracts of Odontosyllis undecimdonta worms; assay type: biochemical; conditions: 1 μg in 100 μl tris-buffered saline pH 7.5, aliquots added to cold worm extracts; FIG. 12, FIG. 13
# Experimental: Adding 5 ml of phosphate buffer (5 mM sodium phosphate buffer, pH 7.4) to 200 mg of lyophilized worms. Pipetting the mixture into liquid nitrogen to create small drops of frozen material, then grounding them in a mortar. Adding the frozen powder to 15 ml of phosphate buffer (5 mM sodium phosphate buffer, pH 7.4) and incubating for 40 minutes in an ice bath while stirring regularly. Centrifuging the mixture at 40,000 g (4° C.) for 40 min. Collecting the supernatant comprising luciferase, luciferin and oxyluciferin, freezing the cell-free extract and storing at −70° C. […] Extracts of Odontosyllis undecimdonta worms were used as biological samples. […]
# [2] = test system: highly purified luciferase; experiment: In vitro bioluminescence reaction, conversion of luciferin into oxyluciferin with highly purified luciferase; assay type: biochemical, Odontosyllis undecimdonta; conditions: 60 μL pure luciferin fraction, 40 μL tris-buffered saline, 20 μL highly purified luciferase; no luminescence in control tube
# Experimental: Each tube contained 60 μL of pure luciferin fraction, 40 μL of tris-buffered saline and 20 μL of highly purified luciferase (see section below) or tris-buffered saline in case of negative control. […] The reaction was monitored by using 5 μl aliquots of the reaction and control mixtures, followed by stopping the reaction in 0, 5, 15, 30, 60, 120, 180, and 300 min by adding 20 μl of methanol and centrifugation, after that, the reversed-phase HPLC was used to analyze the supernatants. A Shim-Pack XR-ODS column (3.0×75 mm, 2.2 μm) was used in combination with a Nexera X2 system (Shimadzu, Japan). Solvent A is a 0.1% formic acid solution, pH 4.9, solvent B is acetonitrile. Elution was carried out in a linear gradient with the solvent B concentration from 1 to 20% (15 min) at a flow rate of 0.7 ml/min. Purified luciferase samples were obtained as a result of sequential purification of an aqueous extract of lyophilized worms: ion-exchange chromatography in a HiTrap Fast Flow column with DEAE-Sepharose (GE Healthcare, Uppsala, Sweden), ultrafiltration in an Amicon® Ultra centrifugal filter (Merck Millipore, Germany) and gel filtration chromatography in a Superdex 200 column ([…]).
# [3] = Storage stability of freeze-dried substrate; assay type: physicochemical; conditions: −20° C.
# Text: This new luciferin isolated by the present inventors has a unique structure that distinguishes it from all previously described natural luciferins. Thus, the basis of the Odontosyllis worm luciferin molecule is a condensed heterocycle—thieno[3,2-f]thiochromene consisting of two six-membered and one five-membered rings. Such complex condensed tricyclic structures have not previously been found as bioluminescent reaction substrates. It is also worth noting that thiopyran is named in the composition of natural bioluminescent substrates for the first time. Odontosyllis worm luciferin is a strongly polar molecule and represents a strong acid, since this molecule comprises three carboxyl substituents and also carries a sulfonic acid residue. Freeze-dried substrate is stored at −20° C. without decrease in activity for at least 30 days, more often at least 60 days, normally at least a year.
# [4] = Effect of light on luciferin; assay type: physicochemical; conditions: confirmed experimentally
# Text: Formation of bioluminescence depends on the amount and preservation of luciferase in biological samples.
# [5] = test system: recombinant luciferase Odontosyllis undecimdonta; experiment: Detecting luciferase in lysates of mammalian cells comprising recombinant luciferase; conditions: 1 μg in 100 μl tris-buffered saline pH 7.5, aliquots added to cell lysates with recombinant luciferase; FIG. 11
# Experimental: Recombinant luciferase was obtained from luciferase complementary DNA synthesized as a linear double-stranded DNA fragment (Twist Biosciences, USA). Cloning was performed using the Golden Gate method. Eukaryotic cell expression plasmids were assembled into the plasmid of the MoClo pICH47742 kit as a backbone, and the following parts were cloned in level 0 vectors: cytomegalovirus promoter, luciferase candidate gene, termination codon comprising a part of DNA, and SV40 polyadenylation terminator. HEK293NT cells were transfected with FuGene 6 reagent plasmid (Promega, Fitchburg, Wis., USA) according to the manufacturer's protocol. The transfected cells were grown under standard conditions.
# Lysates of mammalian cells comprising recombinant luciferase Odontosyllis undecimdonta were used as biological samples. Cell lysates were obtained as described above in the section “Obtaining native luciferase and recombinant luciferase samples”.
luminescence of biological samples [1],radiation (luminescence) in the course of the reaction [2],storage without decrease in activity [3],"effect of light emission, especially the UV part of the spectrum [4]",Compound,luminescence of biological samples [5]
detected,Radiation was observed,at least 30 days,degradation and loss of functionality,"O=C(O)C1=Cc2c(c(OS(=O)(=O)O)c(O)c3scc(C(=O)O)c23)SC1C(=O)O (stereo not drawn) [luciferin, 4-hydroxy-5-(sulfooxy)-7H-thieno[3,2-f]thiochromen-1,7,8-tricarboxylic acid]",detected
detected,,,,"O=C(O)C(=O)C1=C(C(=O)O)Cc2c(c(OS(=O)(=O)O)c(O)c3scc(C(=O)O)c23)S1 [pre-luciferin, 7-(carboxycarbonyl)-4-hydroxy-5-(sulfooxy)-9H-thieno[3,2-f]thiochromene-1,8-dicarboxylic acid]",
